Data published in publication PMC2929395 (Chemistry & biology, 2010).
Entries after “also recorded” stand apart in the source; their conditions may differ. Counter-ions that a name gives are not always drawn.

Assays:
[1] = target: T1, PanK3 (Homo sapiens, UniProt Q9H999); assay: PanK3 high-throughput screen, two-step luminescence; type: biochemical
[2] = target: T1, PanK3; assay: PanK3 radiochemical; type: biochemical; settings: for PanK3 inhibition by steroids: radiochemical assay, 100 µM compound; for PanK3 inhibition (in words) / % Activation RA: radioactive assay; for PanK3 inhibition (in words): increasing concentrations of compound; for % Activation RA: % of maximal activation of PanK3 with respect to the DMSO control; for Reversal of / competition with acetyl-CoA inhibition of PanK3: in the presence of acetyl-CoA, data not shown; for Km: read-out: KM for PanK3, wild-type PanK3, substrate; for EC50 (µM), RA: radiochemical PanK3 assay
[3] = test system: HepG2/C3A cells; assay: CoA biosynthesis, [3H]pantothenate incorporation into CoA in HepG2/C3A cells; type: cell-based, human; settings: 24 h labeling, relative to DMSO control
[4] = target: T2, PanK1β (Homo sapiens, UniProt Q8TE04); assay: Isoform selectivity, purified PanK1β; type: biochemical; settings: compared to PanK3
T2 sequence (Q8TE04 1-373 isoform Q8TE04-2): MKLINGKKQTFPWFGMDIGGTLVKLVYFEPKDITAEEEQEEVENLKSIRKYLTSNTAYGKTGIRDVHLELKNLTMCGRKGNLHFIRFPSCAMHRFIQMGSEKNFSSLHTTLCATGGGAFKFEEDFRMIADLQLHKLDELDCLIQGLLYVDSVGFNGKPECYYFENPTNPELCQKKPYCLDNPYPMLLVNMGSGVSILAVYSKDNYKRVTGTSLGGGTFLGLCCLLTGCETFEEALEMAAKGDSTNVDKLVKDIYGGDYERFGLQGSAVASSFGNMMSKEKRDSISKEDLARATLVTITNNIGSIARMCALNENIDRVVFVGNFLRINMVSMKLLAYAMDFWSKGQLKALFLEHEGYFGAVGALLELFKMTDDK

[5] = target: T3, PanK2 (Homo sapiens, UniProt Q9BZ23); assay: Isoform selectivity, purified PanK2; type: biochemical; settings: compared to PanK3
T3 sequence (Q9BZ23 141-570 limits assumed): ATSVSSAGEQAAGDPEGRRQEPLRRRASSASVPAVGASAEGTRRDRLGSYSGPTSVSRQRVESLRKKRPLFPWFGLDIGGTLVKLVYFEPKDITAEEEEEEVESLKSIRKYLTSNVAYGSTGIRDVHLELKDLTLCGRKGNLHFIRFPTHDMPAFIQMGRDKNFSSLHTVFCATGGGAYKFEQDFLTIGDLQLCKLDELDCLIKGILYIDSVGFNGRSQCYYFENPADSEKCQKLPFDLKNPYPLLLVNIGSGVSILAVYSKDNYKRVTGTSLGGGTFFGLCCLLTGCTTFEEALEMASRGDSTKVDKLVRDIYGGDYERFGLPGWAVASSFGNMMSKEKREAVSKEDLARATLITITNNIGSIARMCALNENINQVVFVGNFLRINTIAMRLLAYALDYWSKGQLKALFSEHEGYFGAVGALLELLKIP

[6] = target: T4, PanK3(S195V) (Homo sapiens, UniProt Q9H999, S195V); assay: PanK3; type: biochemical; settings: for Inhibition of PanK3(S195V): radioactive assay, 800 ng PanK3(S195V); for Km: read-out: KM for PanK3(S195V), substrate
T4 sequence (Q9H999 1-370 S195V): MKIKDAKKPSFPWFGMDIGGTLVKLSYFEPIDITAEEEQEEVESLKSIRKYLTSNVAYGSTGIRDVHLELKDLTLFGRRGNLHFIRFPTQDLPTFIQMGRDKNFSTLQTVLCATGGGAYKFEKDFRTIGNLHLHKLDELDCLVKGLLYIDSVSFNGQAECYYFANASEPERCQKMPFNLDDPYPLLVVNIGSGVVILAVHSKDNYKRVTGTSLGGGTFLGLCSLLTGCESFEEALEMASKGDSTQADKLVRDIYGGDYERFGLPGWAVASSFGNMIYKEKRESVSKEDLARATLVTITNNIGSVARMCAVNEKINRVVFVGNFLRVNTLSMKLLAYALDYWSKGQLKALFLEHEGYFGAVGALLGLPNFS

[7] = target: S. aureus PanK (SaPanK) (Staphylococcus aureus, UniProt Q2FWC7); assay: SaPanK radiochemical assay; type: biochemical; settings: radioactive assay, 10 ng SaPanK
S. aureus PanK (SaPanK), sequence (Q2FWC7 whole entry): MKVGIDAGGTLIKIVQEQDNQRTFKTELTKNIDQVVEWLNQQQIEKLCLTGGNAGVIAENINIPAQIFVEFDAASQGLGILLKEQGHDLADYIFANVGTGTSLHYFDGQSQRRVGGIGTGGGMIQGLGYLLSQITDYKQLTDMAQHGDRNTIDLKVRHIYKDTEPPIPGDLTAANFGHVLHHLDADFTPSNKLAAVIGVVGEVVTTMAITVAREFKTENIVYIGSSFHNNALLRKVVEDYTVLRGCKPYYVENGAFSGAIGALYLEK

[8] = HTS platform, 10-point concentration series in triplicate, rounded to nearest 0.1 µM

T1 sequence (Q9H999 whole entry): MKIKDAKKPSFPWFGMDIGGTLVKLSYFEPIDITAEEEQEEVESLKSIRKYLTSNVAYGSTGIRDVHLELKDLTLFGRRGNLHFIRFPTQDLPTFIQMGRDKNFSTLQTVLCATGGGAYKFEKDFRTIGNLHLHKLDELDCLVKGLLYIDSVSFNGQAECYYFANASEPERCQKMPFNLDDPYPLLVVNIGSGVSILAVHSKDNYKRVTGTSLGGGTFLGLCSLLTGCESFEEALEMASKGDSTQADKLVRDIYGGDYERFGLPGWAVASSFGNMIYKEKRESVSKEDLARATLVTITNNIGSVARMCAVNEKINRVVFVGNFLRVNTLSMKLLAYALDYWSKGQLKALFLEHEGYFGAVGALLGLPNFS

Cc1c(Cl)cccc1Nc1ccccc1C(=O)O [Tolfenamic acid]
IC50 [1]: 9.2 µM

Oc1c(Cl)cc(Cl)c(Cl)c1Cc1c(O)c(Cl)cc(Cl)c1Cl [Hexachlorophene]
IC50 [1]: 8.8 µM

CCc1ccc(CCOc2ccc(CC3SC(=O)NC3=O)cc2)nc1 (stereo not shown) [Pioglitazone hydrochloride]
IC50 [1]: 1 µM

N#C/C(=C\c1ccc(O)c(O)c1)C(=O)N1CCc2ccccc21 [Tyrphostin AG 528]
IC50 [1, 8]: 3 µM

CC(=O)O[C@H]1C[C@@]2(C)[C@@H](C[C@@H](O)[C@H]3[C@@]4(C)CC[C@@H](O)[C@@H](C)[C@@H]4CC[C@@]32C)/C1=C(\CCC=C(C)C)C(=O)O [Fusidic acid]
IC50 [1]: 0.1 µM

C[C@]12CC[C@H](OS(=O)(=O)O)CC1=CC[C@@H]1[C@@H]2CC[C@]2(C)C(=O)CC[C@@H]12 [Dehydroisoandrosterone sulfate]
PanK3 inhibition by steroids [2]: inhibited the enzyme more potently than their non-sulfated versions

CCCCNC(=O)NS(=O)(=O)c1ccc(C)cc1 [Tolbutamide]
PanK3 inhibition (in words) [2]: ineffective

CC/C(=C(\c1ccccc1)c1ccc(OCCN(C)C)cc1)c1ccccc1 [Tamoxifen]
EC50 [1]: 3.4 µM | EC50 [2]: 4 µM | % Activation RA [2]: 140% | Reversal of / competition with acetyl-CoA inhibition of PanK3 [2]: reversed the inhibition of PanK3 by acetyl-CoA | Effect on CoA biosynthesis (pantothenate incorporation into CoA) [3]: most potent activator of CoA biosynthesis in cells | Effect on PanK1β activity [4]: inhibited | Effect on PanK2 activity [5]: not affected

C[C@]12CC[C@@H]3c4ccc(OS(=O)(=O)O)cc4CC[C@H]3[C@@H]1CCC2=O [estrone sulfate]
PanK3 inhibition by steroids [2]: inhibited the enzyme more potently than their non-sulfated versions

CC(=O)[C@H]1CC[C@H]2[C@@H]3CC=C4C[C@@H](O)CC[C@]4(C)[C@H]3CC[C@]12C [Pregnenolone]
PanK3 inhibition by steroids [2]: weak PanK3 inhibitors

Psi-Rhodomyrtoxin
IC50 [1, 8]: 1.6 µM

CCCCCCCCCCCCCCCC(=O)OC(CC(=O)[O-])C[N+](C)(C)C (stereo not shown) [Palmitoyl-carnitine]
EC50 [2]: 1.6 µM | % Activation RA [2]: 120%

C#C[C@]1(O)CC[C@H]2[C@@H]3CCC4=Cc5nc6nc7ccccc7n6cc5C[C@]4(C)[C@H]3CC[C@@]21C [WIN 62577]
IC50 [1, 8]: 0.7 µM

O=C(Nc1ccccc1)c1cc([N+](=O)[O-])ccc1Cl [GW9662]
PanK3 inhibition (in words) [2]: either had no effect or very weak activity

CCCCCCCC/C=C\CCCCCCCC(=O)O[C@H](CC(=O)[O-])C[N+](C)(C)C [Oleoyl-carnitine]
% Activation RA [2]: 140% | Reversal of / competition with acetyl-CoA inhibition of PanK3 [2]: Competition between acetyl-CoA and oleoyl-carnitine was also observed | Effect on CoA biosynthesis (pantothenate incorporation into CoA) [3]: activators of CoA biosynthesis

CN(CCOc1ccc(CC2SC(=O)NC2=O)cc1)c1ccccn1 (stereo not shown) [Rosiglitazone]
Effect on CoA biosynthesis (pantothenate incorporation into CoA) [3]: inhibited pantothenate incorporation into CoA

O=C(c1cc(O)c(O)c([N+](=O)[O-])c1)c1ccccc1F [Ro 41-0960]
IC50 [1, 8]: 3.9 µM

Cc1cnc(C(=O)NCCc2ccc(S(=O)(=O)NC(=O)NC3CCCCC3)cc2)cn1 [Glipizide]
IC50 [1]: 5.2 µM | IC50 [2]: 8.5 µM

CN[C@@H](C)[C@H](O)c1ccccc1 [Ephedrine hydrochloride]
IC50 [1]: 1.6 µM

CCOc1cc(CC(=O)N[C@@H](CC(C)C)c2ccccc2N2CCCCC2)ccc1C(=O)O [repaglinade]
IC50 [2]: > 100 µM

CC(=O)SCCNC(=O)CCNC(=O)[C@H](O)C(C)(C)COP(=O)(O)OP(=O)(O)OC[C@H]1O[C@@H](n2cnc3c(N)ncnc32)[C@H](O)[C@@H]1OP(=O)(O)O [acetyl-CoA]
Inhibition of PanK3(S195V) [6]: refractory to inhibition

Nc1ncnc2c1ncn2[C@@H]1O[C@H](COP(=O)(O)OP(=O)(O)OP(=O)(O)O)[C@@H](O)[C@H]1O [ATP]
Km [2]: 311 ± 53 µM | Km [6]: 191 ± 27 µM

NS(=O)(=O)c1cc(C(=O)O)c(NCc2ccco2)cc1Cl [furosemide]
Activator hit in primary HTS ([1]; screened at 12 µM, cut-off >25% activation): did not make the cutoff for an activator of PanK3

O=C1C(Cl)=C(Cl)C(=O)C(Cl)=C1Cl [Chloranil]
IC50 [1]: 5.9 µM

O=C1C=CC(=O)c2ccccc21 [1,4-naphtoquinone]
% Activation RA [2]: 0% | EC50 (µM), RA [2]: Inactive

Nc1ncnc2c1ncn2[C@@H]1O[C@H](COP(=O)(O)OP(=O)(O)O)[C@@H](O)[C@H]1O [ADP]
Kinetic mechanism of PanK3 inhibition with respect to ATP [2]: competitive inhibitor

N=C(N)SCCc1ccc(CCSC(=N)N)cc1 [1,4-PBIT dihydrobromide]
IC50 [1, 8]: 0.4 µM

CC(C)[C@H]1CC[C@H](C(=O)N[C@H](Cc2ccccc2)C(=O)O)CC1 [nateglinide]
IC50 [2]: > 100 µM

O=C1Nc2ccc(I)cc2/C1=C/c1cc(Br)c(O)c(Br)c1 [GW5074]
IC50 [1, 8]: 9.2 µM

C[C@]12CC[C@H](O)CC1=CC[C@@H]1[C@@H]2CC[C@]2(C)C(=O)CC[C@@H]12 [Dehydroisoandrosterone]
PanK3 inhibition by steroids [2]: decreased the enzyme activity

CC(C)(CO)[C@@H](O)C(=O)NCCC(=O)NCCS [pantetheine]
Km [2]: 23 ± 2 µM | Km [6]: 59 ± 3 µM

CCCCCCCC/C=C\CCCCCCCC(=O)NCCO [Oleoylethanolamide]
EC50 [1]: 7.9 µM | EC50 [2]: 0.5 µM | % Activation RA [2]: 120%

Cc1cc(SCc2sc(-c3ccc(C(F)(F)F)cc3)nc2C)ccc1OCC(=O)O [GW501516]
IC50 [2]: ~100 µM

C[C@]12CC[C@@H]3c4ccc(OS(=O)(=O)O)cc4CC[C@H]3[C@@H]1CC[C@@H]2O [estradiol sulfate]
PanK3 inhibition by steroids [2]: no effect

CC1(C)[C@@H](O)CC[C@]2(C)[C@H]3C(=O)C=C4[C@H]5C[C@@](C)(C(=O)O)CC[C@]5(C)CC[C@@]4(C)[C@]3(C)CC[C@@H]12 [18α-glycyrrhetinic acid]
IC50 [1]: 3.6 µM

CC(C)CCC[C@@H](C)[C@H]1CC[C@H]2[C@@H]3CC=C4C[C@@H](O)CC[C@]4(C)[C@H]3CC[C@]12C [cholesterol]
PanK3 inhibition by steroids [2]: weak PanK3 inhibitors

Tyrphostin AG 808
IC50 [1, 8]: 9 µM

Phenylmercuric acid
% Activation RA [2]: 0% | EC50 (µM), RA [2]: Inactive

CN(CCOc1ccc(C[C@H](Nc2ccccc2C(=O)c2ccccc2)C(=O)O)cc1)c1ccccn1 [GW1929]
PanK3 inhibition (in words) [2]: either had no effect or very weak activity

O=C1NC(=O)C(Cc2ccc3cc(OCc4ccccc4F)ccc3c2)S1 (stereo not shown) [MCC-555]
Kinetic mechanism of PanK3 inhibition with respect to ATP [2]: uncompetitive | Inhibition of PanK3(S195V) [6]: refractory to inhibition | Inhibition of SaPanK [7]: refractory; also recorded: not inhibited | Effect on CoA biosynthesis (pantothenate incorporation into CoA) [3]: inhibited pantothenate incorporation into CoA | Effect on PanK1β activity [4]: inhibited | Effect on PanK2 activity [5]: inhibited
